What all share (assay type): cell-based
Assay [1] concerns Serr. marces. The assay is described as follows: Minimal Inhibitory Concentration, Serr. marces.
Assay [2] has as its system Staph. aureus S18713. Description: Minimal Inhibitory Concentration, Staph. aureus S18713. Conditions: Staphylococcus aureus.
For assay [3], the system named is Entero. cloacae. The assay is described as follows: Minimal Inhibitory Concentration, Entero. cloacae. Conditions: Enterobacter cloacae.
Assay [4] concerns Pseudomonas aeruginosa #28. Description: Minimal Inhibitory Concentration, Pseudomonas aeruginosa #28.
The test system of assay [5] is Klebs. pneu. Description: Minimal Inhibitory Concentration, Klebs. pneu.

In brackets after ≈: the same amount, converted by molar mass.

In the case of `CC1(C)S[C@@H]2[C@H](NC(=O)[C@H](NC(=O)c3ccc(-c4ccc(NS(=O)(=O)CCc5ccncc5)cc4)[nH]c3=O)c3ccccc3)C(=O)N2[C@H]1C(=O)O` [Example 8], the MIC came out at 100 mg/L (≈ 137 µM) in assay [1]; 100 mg/L (≈ 137 µM) in assay [2]; 6.3 mg/L (≈ 8.62 µM) in assay [3]; 6.3 mg/L (≈ 8.62 µM) in assay [4]; 3.1 mg/L (≈ 4.24 µM) in assay [5].

In the case of `CC1(C)S[C@@H]2[C@H](NC(=O)[C@H](NC(=O)c3ccc(-c4ccc(NS(C)(=O)=O)cc4)[nH]c3=O)c3ccccc3)C(=O)N2[C@H]1C(=O)O` [Example 2, N-[6-[4-(Methylsulfonylamino)phenyl]-1,2-dihydro-2-oxonicotinoyl]ampicillin], the MIC in assay [1] stood at 50 mg/L (≈ 78.2 µM); in assay [2], 100 mg/L (≈ 156 µM); in assay [3] it was 6.3 mg/L (≈ 9.85 µM); in assay [4], 3.1 mg/L (≈ 4.85 µM); in assay [5], 3.1 mg/L (≈ 4.85 µM).

In the case of `CC1(C)S[C@@H]2[C@H](NC(=O)[C@H](NC(=O)c3ccc(-c4cccc(NS(C)(=O)=O)c4)[nH]c3=O)c3ccccc3)C(=O)N2[C@H]1C(=O)O` [Example 1, N-[6-[3-(Methylsulfonylamino)phenyl]-1,2-dihydro-2-oxonicotinoyl]ampicillin], the MIC in assay [1] is 25 mg/L (≈ 39.1 µM); in assay [2] it was greater than 200 mg/L; in assay [3], 6.3 mg/L (≈ 9.85 µM); in assay [4], 12.5 mg/L (≈ 19.5 µM); in assay [5], 1.6 mg/L (≈ 2.5 µM).

Turning to `CC1(C)S[C@@H]2[C@H](NC(=O)[C@H](NC(=O)c3ccc(-c4ccc(NS(=O)(=O)C(F)(F)F)cc4)[nH]c3=O)c3ccc(O)cc3)C(=O)N2[C@H]1C(=O)O` [Example 6, N[6-[4-(Trifluoromethylsulfonylamino)phenyl]-1,2-dihydro-2-oxonicotinoyl]amoxicillin], the MIC was 50 mg/L (≈ 70.5 µM) in assay [1]; 25 mg/L (≈ 35.2 µM) in assay [2]; 6.3 mg/L (≈ 8.88 µM) in assay [3]; 12.5 mg/L (≈ 17.6 µM) in assay [4]; 25 mg/L (≈ 35.2 µM) in assay [5].

Consider `CC1(C)S[C@@H]2[C@H](NC(=O)[C@H](NC(=O)c3ccc(-c4ccc(NS(C)(=O)=O)cc4)[nH]c3=O)c3ccc(O)cc3)C(=O)N2[C@H]1C(=O)O` [Example 3], for which the MIC in assay [1] was 100 mg/L (≈ 153 µM); in assay [2], 100 mg/L (≈ 153 µM); in assay [3], 3.1 mg/L (≈ 4.73 µM); in assay [4], 1.6 mg/L (≈ 2.44 µM); in assay [5] it was 3.1 mg/L (≈ 4.73 µM).

On to `CC(=O)OCCCS(=O)(=O)Nc1ccc(-c2ccc(C(=O)N[C@@H](C(=O)N[C@@H]3C(=O)N4[C@@H]3SC(C)(C)[C@@H]4C(=O)O)c3ccccc3)c(=O)[nH]2)cc1` [Example 7, N-[6-[4-[3-(acetyloxy)propylsulfonylamino]phenyl]-1,2-dihydro-2-oxonicotinoyl]ampicillin], for which the MIC in assay [1] worked out at 100 mg/L (≈ 138 µM); in assay [2], 100 mg/L (≈ 138 µM); in assay [3], 6.3 mg/L (≈ 8.68 µM); in assay [4], 6.3 mg/L (≈ 8.68 µM); in assay [5], 3.1 mg/L (≈ 4.27 µM).

Turning to `CC1(C)S[C@@H]2[C@H](NC(=O)[C@H](NC(=O)c3ccc(-c4cccc(NS(=O)(=O)c5cccnc5)c4)[nH]c3=O)c3ccccc3)C(=O)N2[C@H]1C(=O)O` [Example 10, N-[6-[3-(3-pyridinylsulfonylamino)phenyl]-1,2-dihydro-2-oxonicotinoyl]ampicillin], the MIC in assay [1] was 100 mg/L (≈ 142 µM); in assay [2] it was greater than 200 mg/L; in assay [3] it was 12.5 mg/L (≈ 17.8 µM); in assay [4], 12.5 mg/L (≈ 17.8 µM); in assay [5] it was 6.3 mg/L (≈ 8.96 µM).

Turning to `CC1(C)S[C@@H]2[C@H](NC(=O)[C@H](NC(=O)c3ccc(-c4ccc(NS(=O)(=O)C(F)(F)F)cc4)[nH]c3=O)c3ccccc3)C(=O)N2[C@H]1C(=O)O` [Example 5, N-[6-[4-(Trifluoromethylsulfonylamino)phenyl]-1,2-dihydro-2-oxonicotinoyl]ampicillin], the MIC was 200 mg/L (≈ 288 µM) in assay [1]; 200 mg/L (≈ 288 µM) in assay [2]; 6.3 mg/L (≈ 9.08 µM) in assay [3]; 6.3 mg/L (≈ 9.08 µM) in assay [4]; 3.1 mg/L (≈ 4.47 µM) in assay [5].

With `CCCS(=O)(=O)Nc1ccc(-c2ccc(C(=O)N[C@@H](C(=O)N[C@@H]3C(=O)N4[C@@H]3SC(C)(C)[C@@H]4C(=O)O)c3ccccc3)c(=O)[nH]2)cc1` [Example 4, N-[6-[4-(Propylsulfonylamino)phenyl]-1,2-dihydro-2-oxonictinoyl]ampicillin], the minimum inhibitory concentration (MIC) in assay [1] is 50 mg/L (≈ 74.9 µM); in assay [2], 100 mg/L (≈ 150 µM); in assay [3], 6.3 mg/L (≈ 9.43 µM); in assay [4] it was 3.1 mg/L (≈ 4.64 µM); in assay [5] it was 3.1 mg/L (≈ 4.64 µM).

As for `CC1(C)S[C@@H]2[C@H](NC(=O)[C@H](NC(=O)c3ccc(-c4ccc(NS(=O)(=O)c5cccnc5)cc4)[nH]c3=O)c3ccccc3)C(=O)N2[C@H]1C(=O)O` [Example 9, N-[6-[4-(3-pyridinylsulfonylamino)phenyl]-1,2-dihydro-2-oxonicotinoyl]ampicillin], the MIC in assay [1] was found to be 100 mg/L (≈ 142 µM); in assay [2], 100 mg/L (≈ 142 µM); in assay [3], 12.5 mg/L (≈ 17.8 µM); in assay [4] it was 12.5 mg/L (≈ 17.8 µM); in assay [5], 6.3 mg/L (≈ 8.96 µM).

In general, MIC refers to the lowest concentration found to suppress growth.

For the origin of these results see patent US4315014A, “Antibacterial amide compounds and pharmaceutical composition containing the same” (Warner-Lambert Company, priority 1980, dated 1982).
